pIC50: −log10 of the molar value. In brackets after ≈: the same amount, converted by molar mass.
Columns and labels:
Proteus mirabilis = test: microbe, parasite or virus in culture
Bacillus subtilis = test: microbe, parasite or virus in culture
Klebsiella pneumoniae = test: microbe, parasite or virus in culture
Streptococcus pyogenes = test: microbe, parasite or virus in culture
Burkholderia cepacia = test: microbe, parasite or virus in culture
Escherichia coli = test: microbe, parasite or virus in culture; settings: K-12
Staphylococcus aureus [1] = test: microbe, parasite or virus in culture; settings: NRS70
Acinetobacter = test: microbe, parasite or virus in culture
[2] = test system: Mycobacterium tuberculosis; test: microbe, parasite or virus in culture; settings: H37Rv, 168 h
[3] = target: T1, Bifunctional epoxide hydrolase 2 (Homo sapiens, UniProt P34913)
T1 sequence (P34913 whole entry): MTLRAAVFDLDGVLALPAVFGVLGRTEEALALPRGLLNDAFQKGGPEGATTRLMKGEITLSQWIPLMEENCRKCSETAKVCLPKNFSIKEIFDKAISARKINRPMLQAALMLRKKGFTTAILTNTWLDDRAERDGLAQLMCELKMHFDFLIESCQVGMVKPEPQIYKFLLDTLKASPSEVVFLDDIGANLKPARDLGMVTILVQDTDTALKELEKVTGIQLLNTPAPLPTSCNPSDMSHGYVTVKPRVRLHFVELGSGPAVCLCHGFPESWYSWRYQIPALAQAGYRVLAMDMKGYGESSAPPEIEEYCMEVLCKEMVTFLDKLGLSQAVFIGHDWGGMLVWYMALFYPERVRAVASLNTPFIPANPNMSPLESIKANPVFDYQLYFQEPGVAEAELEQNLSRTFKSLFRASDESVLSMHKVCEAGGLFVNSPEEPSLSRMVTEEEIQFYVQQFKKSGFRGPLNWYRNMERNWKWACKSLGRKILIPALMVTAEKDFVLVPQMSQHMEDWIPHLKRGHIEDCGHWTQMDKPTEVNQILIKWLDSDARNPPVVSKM

Plasma = settings: human, 4 h, 10 µM
Pseudomonas aeruginosa = test: microbe, parasite or virus in culture
[4] = buffer, 18 h, pH 7.4
Enterococcus faecalis = test: microbe, parasite or virus in culture
Vero = test: cells; settings: Chlorocebus sabaeus, 72 h
Proteus vulgaris = test: microbe, parasite or virus in culture
Staphylococcus aureus [5] = test: microbe, parasite or virus in culture; settings: ATCC 29213
Bacillus anthracis = test: microbe, parasite or virus in culture; settings: Sterne
Streptococcus pneumoniae = test: microbe, parasite or virus in culture

SMILES	MIC (Proteus mirabilis)	MIC (Bacillus subtilis)	MIC (Klebsiella pneumoniae)	MIC (Streptococcus pyogenes)	MIC (Burkholderia cepacia)	MIC (Escherichia coli)	MIC (Staphylococcus aureus [1])	MIC (Acinetobacter)	MIC [2]	pIC50 [3]	PPB (Plasma)	MIC (Pseudomonas aeruginosa)	solubility [4]	MIC (Enterococcus faecalis)	IC50 (Vero)	MIC (Proteus vulgaris)	MIC (Staphylococcus aureus [5])	MIC (Bacillus anthracis)	MIC (Streptococcus pneumoniae)
CCCn1nc(NC(=O)NC2C3CC4CC(C3)CC2C4)cc1C (stereo unspecified)	> 200 µg/mL	> 200 µg/mL	> 200 µg/mL	> 200 µg/mL	> 200 µg/mL	> 200 µg/mL	> 200 µg/mL	> 200 µg/mL	1.56 µg/mL (≈ 4.93 µM)	6.03	98.9%	> 200 µg/mL	2 µg/mL (≈ 6.32 µM)	> 200 µg/mL	83 µg/mL (≈ 262 µM)	> 200 µg/mL	> 200 µg/mL	> 200 µg/mL	> 200 µg/mL
O=C(Nc1nccs1)NC12CC3CC(CC(C3)C1)C2	> 200 µg/mL	> 200 µg/mL	> 200 µg/mL	> 200 µg/mL	> 200 µg/mL	> 200 µg/mL	> 200 µg/mL	> 200 µg/mL	3.13 µg/mL (≈ 11.3 µM)	7.08		> 200 µg/mL		> 200 µg/mL	22 µg/mL (≈ 79.3 µM)	> 200 µg/mL	> 200 µg/mL	> 200 µg/mL	100 µg/mL (≈ 360 µM)
Cc1csc(NC(=O)NC23CC4CC(CC(C4)C2)C3)n1	> 200 µg/mL	> 200 µg/mL	> 200 µg/mL	> 200 µg/mL	> 200 µg/mL	> 200 µg/mL	100 µg/mL (≈ 343 µM)	> 200 µg/mL	1.56 µg/mL (≈ 5.35 µM)	6.31		> 200 µg/mL		> 200 µg/mL	13 µg/mL (≈ 44.6 µM)	> 200 µg/mL	50 µg/mL (≈ 172 µM)	> 200 µg/mL	25 µg/mL (≈ 85.8 µM)
Cc1cnc(NC(=O)NC23CC4CC(CC(C4)C2)C3)s1	> 200 µg/mL	> 200 µg/mL	> 200 µg/mL	> 200 µg/mL	> 200 µg/mL	> 200 µg/mL	200 µg/mL (≈ 686 µM)	> 200 µg/mL	3.13 µg/mL (≈ 10.7 µM)	6.94		> 200 µg/mL		200 µg/mL (≈ 686 µM)	23 µg/mL (≈ 78.9 µM)	> 200 µg/mL	> 200 µg/mL	> 200 µg/mL	> 200 µg/mL
O=C(Nc1nc2ccccc2s1)NC12CC3CC(CC(C3)C1)C2	> 200 µg/mL	200 µg/mL (≈ 611 µM)	> 200 µg/mL	> 200 µg/mL	> 200 µg/mL	> 200 µg/mL	> 200 µg/mL	> 200 µg/mL	0.78 µg/mL (≈ 2.38 µM)	8.52		> 200 µg/mL		> 200 µg/mL	17 µg/mL (≈ 51.9 µM)	> 200 µg/mL	> 200 µg/mL	200 µg/mL (≈ 611 µM)	> 200 µg/mL
CCCn1nc(NC(=O)NC23CC4CC(CC(C4)C2)C3)cc1C	> 200 µg/mL	> 200 µg/mL	> 200 µg/mL	> 200 µg/mL	> 200 µg/mL	> 200 µg/mL	> 200 µg/mL	> 200 µg/mL	1.56 µg/mL (≈ 4.93 µM)	6.12		> 200 µg/mL		> 200 µg/mL	26 µg/mL (≈ 82.2 µM)	> 200 µg/mL	> 200 µg/mL	> 200 µg/mL	> 200 µg/mL
Cc1cc(NC(=O)NC2C3CC4CC(C3)CC2C4)no1 (stereo unspecified)	> 200 µg/mL	> 200 µg/mL	> 200 µg/mL	> 200 µg/mL	> 200 µg/mL	> 200 µg/mL	> 200 µg/mL	> 200 µg/mL	6.25 µg/mL (≈ 22.7 µM)	8.30		> 200 µg/mL	25.5 µg/mL (≈ 92.6 µM)	> 200 µg/mL	> 48 µg/mL	> 200 µg/mL	> 200 µg/mL	> 200 µg/mL	> 200 µg/mL
Cc1csc(NC(=O)NC2C3CC4CC(C3)CC2C4)n1 (stereo unspecified)	> 200 µg/mL	> 200 µg/mL	> 200 µg/mL	200 µg/mL (≈ 686 µM)	> 200 µg/mL	> 200 µg/mL	100 µg/mL (≈ 343 µM)	> 200 µg/mL	1.56 µg/mL (≈ 5.35 µM)	6.15		> 200 µg/mL		> 200 µg/mL	60 µg/mL (≈ 206 µM)	> 200 µg/mL	200 µg/mL (≈ 686 µM)	> 200 µg/mL	100 µg/mL (≈ 343 µM)
O=C(Nc1nnc(C2CC2)o1)NC1C2CC3CC(C2)CC1C3 (stereo unspecified)	> 200 µg/mL	> 200 µg/mL	> 200 µg/mL	> 200 µg/mL	200 µg/mL (≈ 661 µM)	> 200 µg/mL	> 200 µg/mL	> 200 µg/mL	3.13 µg/mL (≈ 10.4 µM)	5.62		> 200 µg/mL		> 200 µg/mL	180 µg/mL (≈ 595 µM)	> 200 µg/mL	200 µg/mL (≈ 661 µM)	> 200 µg/mL	> 200 µg/mL
CCn1nc(NC(=O)NC2C3CC4CC(C3)CC2C4)cc1C (stereo unspecified)	> 200 µg/mL	> 200 µg/mL	> 200 µg/mL	> 200 µg/mL	> 200 µg/mL	> 200 µg/mL	> 200 µg/mL	> 200 µg/mL	3.13 µg/mL (≈ 10.3 µM)	5.61		> 200 µg/mL		> 200 µg/mL	163 µg/mL (≈ 539 µM)	> 200 µg/mL	100 µg/mL (≈ 331 µM)	> 200 µg/mL	> 200 µg/mL
COc1ccc(NS(=O)(=O)c2ccc(NC(=O)NC34CC5CC(CC(C5)C3)C4)cc2)nn1	100 µg/mL (≈ 219 µM)	200 µg/mL (≈ 437 µM)	> 200 µg/mL	> 200 µg/mL	200 µg/mL (≈ 437 µM)	200 µg/mL (≈ 437 µM)	100 µg/mL (≈ 219 µM)	> 200 µg/mL	25 µg/mL (≈ 54.6 µM)	8.15		> 200 µg/mL	14.1 µg/mL (≈ 30.8 µM)	200 µg/mL (≈ 437 µM)		200 µg/mL (≈ 437 µM)	200 µg/mL (≈ 437 µM)	50 µg/mL (≈ 109 µM)	100 µg/mL (≈ 219 µM)
Cc1cc(NS(=O)(=O)c2ccc(NC(=O)NC34CC5CC(CC(C5)C3)C4)cc2)no1	> 200 µg/mL	> 200 µg/mL	> 200 µg/mL	> 200 µg/mL	> 200 µg/mL	> 200 µg/mL	50 µg/mL (≈ 116 µM)	> 200 µg/mL	25 µg/mL (≈ 58.1 µM)	6.53		> 200 µg/mL	2 µg/mL (≈ 4.65 µM)	> 200 µg/mL		> 200 µg/mL	> 200 µg/mL	> 200 µg/mL	> 200 µg/mL
Cc1nc(NS(=O)(=O)c2ccc(NC(=O)NC34CC5CC(CC(C5)C3)C4)cc2)oc1C	> 200 µg/mL	> 200 µg/mL	> 200 µg/mL	> 200 µg/mL	> 200 µg/mL	> 200 µg/mL	> 200 µg/mL	> 200 µg/mL	> 25 µg/mL	7.89		> 200 µg/mL	27.1 µg/mL (≈ 61 µM)	> 200 µg/mL		> 200 µg/mL	> 200 µg/mL	> 200 µg/mL	> 200 µg/mL
Cc1ccnc(NS(=O)(=O)c2ccc(NC(=O)NC34CC5CC(CC(C5)C3)C4)cc2)n1	> 200 µg/mL	> 200 µg/mL	> 200 µg/mL	> 200 µg/mL	> 200 µg/mL	> 200 µg/mL	> 200 µg/mL	100 µg/mL (≈ 226 µM)	> 25 µg/mL	7.77		> 200 µg/mL	2.5 µg/mL (≈ 5.66 µM)	> 200 µg/mL		> 200 µg/mL	> 200 µg/mL	100 µg/mL (≈ 226 µM)	> 200 µg/mL
Cc1noc(NS(=O)(=O)c2ccc(NC(=O)NC34CC5CC(CC(C5)C3)C4)cc2)c1C	> 200 µg/mL	> 200 µg/mL	> 200 µg/mL	> 200 µg/mL	> 200 µg/mL	> 200 µg/mL	> 200 µg/mL	> 200 µg/mL	25 µg/mL (≈ 56.2 µM)	7.51		> 200 µg/mL	27.3 µg/mL (≈ 61.4 µM)	> 200 µg/mL		> 200 µg/mL	> 200 µg/mL	> 200 µg/mL	> 200 µg/mL
O=C(Nc1ncco1)NC12CC3CC(CC(C3)C1)C2	> 200 µg/mL	> 200 µg/mL	> 200 µg/mL	> 200 µg/mL	> 200 µg/mL	> 200 µg/mL	> 200 µg/mL	> 200 µg/mL	6.25 µg/mL (≈ 23.9 µM)	6.02		> 200 µg/mL	4.4 µg/mL (≈ 16.8 µM)	> 200 µg/mL	22 µg/mL (≈ 84.2 µM)	> 200 µg/mL	> 200 µg/mL	> 200 µg/mL	> 200 µg/mL
